# Source: patent publication US9663454B2, “3-aryl propiolonitrile compounds for thiol labeling” (Universite de Strasbourg, priority 2013, dated 2017)
# Entries after “also recorded” stand apart in the source; their conditions may differ. Marks after values point to notes of the source that are not given here.
# Columns and labels:
# [1] = Labeling of a cysteine derivative: conversion of arylpropiolonitriles 1-12 with AcCysNHBn, HPLC; settings: 50 μM of each reagent, 25° C., PBS pH 7.6
# Protocol: To a vial containing 985 μL of PBS (1×, pH 7.6), were subsequently added 5 μL of the stock solution of benzamide (10 mM in water), 5 μL of the stock solution of arylpropiolonitrile (1-12, 10 mM in DMSO) and 5 μL of stock solution of AcCysNHBn (7 m, 10 mM in DMSO). […] Areas under the peaks of the starting materials and hydrolysis products were normalized according to the area of the peak of the internal standard.
# Obtained results are summed up in table 2 below, which presents the conversion of the compounds 1-12 in 30 minutes in presence of 7m at 50 μM concentration of each reagent and 25° C. The reaction is extremely sensitive to steric hindrances induced by substituents in ortho-position to propiolonitrile group (entries 1, 5, 8-9, 4) as well as to electronic effect of the substituent: −I and −M substituents increase (entries 10 and 12), while +M substituents decrease the reactivity of the compound (entries 3 and 7).
# [2] = Hydrolytic stability in PBS, HPLC monitoring; type: physicochemical
# Protocol: FIG. 3a-3b: HPLC monitoring of the hydrolysis of phenylmaleimide (2) in PBS (1×, pH 7.6) at 1 mM concentration at 25° C.; the peaks correspond, from the earliest to the latest, to
# [drawing 5] conversion was monitored by disappearance of the starting material (a). Pseudo first order rate constant for the reaction was determined by plotting the ln([phenylmaleimide]) versus time and analyzing by linear regression. The constant corresponds to the absolute value of determined slope (b).
# FIG. 4: HPLC monitoring of hydrolytic stability of N-(4-(cyanoethynyl)phenyl)acetamide (pNHAc-APN, 11) in PBS (1×, pH 7.6) at 1 mM concentration at 25° C. Conversion was monitored by disappearance of the starting material; the peaks correspond, from the earliest to the latest, to
# To a vial containing 980 μL of PBS (1×, pH 7.6), were subsequently added 10 μL of a stock solution of benzamide and 10 μL of a stock solution of electrophile (phenylmaleimide 1 or
# [drawing 112] 11) to give final concentration of 1 mM (both internal standard and electrophile). Aliquots of the reaction mixture (50 μL) were analyzed by HPLC for 5 hours of hydrolysis (injection every 30 min). Areas under the peaks of the starting materials and hydrolysis products were normalized according to the area of the peak of the internal standard.
# [3] = system: partially reduced Trastuzumab; assay: Direct conjugation to partially reduced Trastuzumab, SDS-PAGE and ESI-MS
# Protocol: To the solution of Trastuzumab (100 uL, 10 mg/mL in 50 mM PBS pH 7.4 with 10 mM of EDTA) was added the solution of TCEP (10 mM in water, 1.1 or 2.2 eq.). The mixture was incubated at 37° C. for 2 h and then the solution of 58 (8.25 μL, 10 mM in DMSO) was added. The mixture was incubated at 25° C. for 16 h and the conjugate was purified by size exclusion chromatography.
# [4] = Stability of the addition product in different working solutions, HPLC; type: physicochemical; settings: for Conversion of “addition product” in 1 h: 100 μM, 25° C.
# Protocol: A 100 mM stock solution of the “addition product”
# [drawing 113] was prepared in DMSO and stored at −20° C. 1 μL of the stock solution was added to 999 μL of working solutions to give 100 μM final concentration of substrate. Aliquots were analyzed at 0, 30 and 60 min. Areas under peak of starting material were normalized according to the area of the peak of the internal standard (benzamide). All measurements were carried at 25° C.
# Trastuzumab [5] = assay: Rebridging of antibody fragments, SDS-PAGE in reducing conditions; settings: Trastuzumab reduced with 5 eq. TCEP, 15 eq. compound, 16 h at 25° C.
# Protocol: To the solution of Trastuzumab (100 uL, 10 mg/mL in 50 mM PBS pH 7.4 with 10 mM of EDTA) was added the solution of TCEP (10 mM in water, 5 eq.). The mixture was incubated at 37° C. for 2 h and then the solution of 33 or 34 (10 mM in DMSO, 15 eq.) was added. The resulting solution was incubated for 16 h at 25° C. and then analyzed by SDS-PAGE in reducing conditions.
# Trastuzumab [6] = assay: Conjugation of Trastuzumab and TAMRA-SH via linker, SDS-PAGE and native ESI-MS
# Protocol: To the solution of Trastuzumab (100 uL, 10 mg/mL in 50 mM borate buffer pH 8.5) was added 1.74 uL of the solution of 18 (10 mg/mL in DMSO). After incubation for 1 h at 25° C. was added 0.69 uL of TAMRA-SH (100 mM in DMSO). The mixture was incubated at 25° C. for 16 h and the conjugate was purified by size exclusion chromatography.
# The comparison experiment was carried out using 4-(N-maleimidomethyl)cyclohexanecarboxylic acid N-hydroxysuccinimide ester (SMCC) instead of 18.
# [7] = conversion of the compound in 30 minutes in presence of 7m
# [8] = conversion in 60 minutes in presence of 7m
smiles,measurement,setting,value
"COc1ccccc1C#CC#N [Compound 1, 3-(2-Methoxyphenyl)propiolonitrile]",Conversion,[1]; [7],10.1%
same,kobs (pseudo first order rate constant of hydrolysis),"[2]; PBS (1×, pH 7.6), 1 mM, 25° C.",7e-05 s⁻¹
same,hydrolyzed,[2]; after 1 h in buffer solution,approximately 25%
"CC(=O)Nc1ccc(C#CC#N)cc1 [Compound 11, N-(4-(Cyanoethynyl)phenyl)acetamide]",Conversion,[1]; [7],52.3%
same,hydrolysis (in words),"[2]; PBS (1×, pH 7.6), 1 mM, 25° C., up to 5 hours of monitoring",no hydrolysis could be detected; also recorded: No detectable conversion; also recorded: no detectable change in concentration
same,hydrolysis (in words),[2]; after a week at room temperature,no trace of hydrolyzed product could be detected
"Cc1cccc(C)c1C#CC#N [Compound 9, 3-(2,6-Dimethylphenyl)propiolonitrile]",Conversion,[1]; [8],2.3%**
"COc1ccc(C#CC#N)cc1 [Compound 3, 3-(4-Methoxyphenyl)propiolonitrile]",Conversion,[1]; [7],14.6%
"N#CC#Cc1ccc(N)cc1 [Compound 7, 3-(4-Aminophenyl)propiolonitrile]",Conversion,[1]; [7],7.4%
"CN(C)c1ccc2c(-c3cc(C(=O)NCc4cn(-c5ccc(C#CC#N)cc5)nn4)ccc3C(=O)[O-])c3ccc(=[N+](C)C)cc-3oc2c1 [Compound 58, 4-(((1-(4-(cyanoethynyl)phenyl)-1H-1,2,3-triazol-4-yl)methyl)carbamoyl)-2-(6-(dimethylamino)-3-(dimethyliminio)-3H-xanthen-9-yl)benzoate]","molecules conjugated per antibody, in average","[3]; ESI-MS, 2.2 eq. of TCEP",4
same,attachment to the antibody (in words),[3]; SDS-PAGE of the conjugates,covalently attached to the antibody
N#CC=C(SCC(N)C(=O)NCc1ccccc1)c1ccccc1 (centres unmarked) [addition product],Conversion of “addition product” in 1 h,[4]; 100 mM PhSH in PBS(7.4):DMSO = 80:20,0.7%
same,Conversion of “addition product” in 1 h,[4]; 1M Glutathione reduced (GSH) in PBS (7.4),0.4%
same,Conversion of “addition product” in 1 h,[4]; 1M H2O2,1.8%
same,Conversion of “addition product” in 1 h,[4]; 1M HCl (pH = 0),0.1%
same,Conversion of “addition product” in 1 h,[4]; 1M Imidazole in PBS (7.4),0.5%
same,Conversion of “addition product” in 1 h,[4]; 1M NaOH (pH = 14),3.4%
same,thiol exchange (in words),[4]; 1 hour with an excess of phenylthiol or glutathione,no exchange product could be observed; also recorded: hardly any thiol exchange is observed
same,stability (in words),"[4]; wide range of conditions, pH from 0 to 14",stable in a wide range of pH (from 0 to 14); also recorded: stable and undergoes very little degradation in a wide range of conditions
"N#CC#Cc1ccccc1C#CC#N [Compound 33, 3,3′-(1,2-Phenylene)dipropiolonitrile]",bridging of antibody fragments (in words),Trastuzumab [5],successfully bridged
"N#CC#Cc1ccccc1[N+](=O)[O-] [Compound 10, 3-(2-Nitrophenyl)propiolonitrile]",Conversion,[1]; [7],70.4%*
"COc1cccc(OC)c1C#CC#N [Compound 4, 3-(2,6-Dimethoxyphenyl)propiolonitrile]",Conversion,[1]; [8],4.8%**
"N#CC#Cc1cccc(C#CC#N)c1 [Compound 34, 3,3′-(1,3-Phenylene)dipropiolonitrile]",bridging of antibody fragments (in words),Trastuzumab [5],successfully bridged
"O=C(ON1C(=O)CCC1=O)C1CCC(CN2C(=O)C=CC2=O)CC1 (centres unmarked) [SMCC, 4-(N-maleimidomethyl)cyclohexanecarboxylic acid N-hydroxysuccinimide ester, reference compound]",population of conjugates (in words),Trastuzumab [6]; native ESI-MS of the conjugate,complex mixture of undistinguishable species
"Cc1ccccc1C#CC#N [Compound 8, 3-(o-Tolyl)propiolonitrile]",Conversion,[1]; [7],10.3%
"N#CC#Cc1ccc(C(=O)Oc2c(F)c(F)c(S(=O)(=O)O)c(F)c2F)cc1 [Compound 18, Sodium 4-((4-(cyanoethynyl)benzoyl)oxy)-2,3,5,6-tetrafluorobenzenesulfonate]",level of conjugation (in words),"Trastuzumab [6]; SDS-PAGE, Trastuzumab + TAMRA-SH, versus SMCC",higher levels of conjugation comparing to SMCC
same,"molecules of TAMRA conjugated per antibody, in average",Trastuzumab [6]; native ESI-MS of the conjugate,one
same,population of conjugates (in words),Trastuzumab [6]; native ESI-MS of the conjugate,cleaner population of conjugates
"CNC(=O)c1ccc(C#CC#N)cc1 [Compound 12, 4-(Cyanoethynyl)-N-methylbenzamide]",Conversion,[1]; [7],85.5%
"N#CC#Cc1ccccc1N [Compound 5, 3-(2-Aminophenyl)propiolonitrile]",Conversion,[1]; [7],10.8%
"N#CC#Cc1cccc(N)c1 [Compound 6, 3-(3-Aminophenyl)propiolonitrile]",Conversion,[1]; [7],42.0%
"COc1cccc(C#CC#N)c1 [Compound 2, 3-(3-Methoxyphenyl)propiolonitrile]",Conversion,[1]; [7],46.8%
